The values that follow come from patent US20120214802A1, “PYRROLIDINE COMPOUNDS WHICH INHIBIT BETA-SECRETASE ACTIVITY AND METHODS OF USE THEREOF” (priority 2009, published 2012).

Read-outs that look alike come from different tables or passages of the source.

In general, IC50 refers to the concentration needed to halve the response being measured.

The target of data set [1] is memapsin 2 (Homo sapiens, UniProt P56817). The data set is described as follows: Inhibition of memapsin 2 beta-secretase activity (fluorogenic substrate FS-2). Format: biochemical. The following applies: pH 4, 37° C., read-out: M2 Ki. The method in brief: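 Memapsin 2 pre-incubated with compound for 20 min at pH 4, 37° C. Reaction started with fluorogenic substrate FS-2, […], derived from Swedish-variant APP beta-secretase site; inhibition measured from fluorescence.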

The target in data set [2] is T1, memapsin 2 (Cricetulus griseus, UniProt G3IAK4).
T1 construct: endogenous in cells; host or cells: Chinese hamster ovary cells over-expressing human APP695 (London + Swedish)
The data set is described as follows: Cellular Aβ IC50 determination (Aβ40 sandwich ELISA). The data set is classed as cell-based, Chinese hamster. The following applies: CHO cells over-expressing human APP695 with London and Swedish mutations, 24 h, read-out: M2 IC50. The procedure, abridged:
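CHO cells overexpressing human APP695 (London and Swedish mutations) treated 48 h post-seeding with serially diluted compounds (top near 4 μM, 0.4% DMSO), 24 h at 37° C, 5% CO2. Medium Aβ40 measured by sandwich ELISA; levels relative to control fitted to 4-parameter IC50 model.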
(In an ELISA, binding on a coated surface is turned into a signal by an enzyme label.)

The target in a further data set is T2, CYP3A4 (Homo sapiens, UniProt P08684).
T2 construct: host or cells: human liver microsomes
The data set is described as follows: CYP3A4 inhibition (midazolam metabolism in human liver microsomes). The data set is classed as in vitro ADME. The following applies: substrate midazolam. The method, then:
To evaluate the drug-drug interaction potential for compounds, the potency to inhibit the major metabolic cytochrome CYP450 isoform 3A4 was assessed. The inhibition constant Ki was determined for inhibition of the metabolism of midazolam, a CYP3A4 substrate.
CYP3A4 Ki assays were performed following a recently published protocol with slight modifications (Di, L., Kerns, E. H., Li, S. Q., and Carter, G. T. (2007) Comparison of cytochrome P450 inhibition assays for drug discovery using human liver microsomes with LC-MS, rhCYP450 isozymes with fluorescence, and double cocktail with LC-MS. International Journal of Pharmaceutics 335: 1-11). The P450 inhibition assay was performed in 96-well plates at 37.2° C. in a shaking incubator. The compounds were diluted from 5 mM stocks in 100% DMSO and incubated at seven final concentrations from 0.078 to 10 μM (0.1% DMSO in each final incubation), with human liver microsomes (HLM) at a final protein concentration of 0.1 mg/mL protein and a substrate concentration ranging from 1.25 to 10 μM.
The assay was standardized for both phosphate buffer (100 mM, pH 7.4) and the NADPH regenerating system (MgCl2, 3.3 mM; G6P, 3.3 mM; G6PD, 1 U/ml; NADP+, 1.3 mM). Eight replicate control samples (0.1% DMSO, no compound) were prepared. Assays (200 μL) were set up by mixing HLM+substrate stock, 10 μL of test article in 2% DMSO, and the substrate before initiating the reaction with the addition of the regenerating system mixture. Reactions were quenched following incubation for 20, 30 and 40 minutes as described following.
After incubation for the specified time in a humidified shaking incubator, 20 μL of the reaction mixture was removed and the reactions were terminated by adding 200 μL of cold acetonitrile. Samples were centrifuged at 1000×g for 15 minutes in Solvinert filter plate. The receptor plate was dried via speed vacuum at 40° C. The sample was reconstituted with a reconstitution buffer composed of 10% acetonitrile, 10% DMSO, 80% H2O with an internal standard added at a concentration of 100 ng/ml. MS-Analysis was completed using LC-MS/MS. Formation of 1′-hydroxymidazolam was measured by monitoring a specific SRM (342>203) transition for the CYP3A4 metabolite.
Data were expressed as the relative quantity of midazolam metabolite relative to control incubations. Initial velocities were obtained by multiplying the relative quantity by the initial substrate concentration and dividing by the incubation duration. Data were transformed to inverse of inivital velocity and expressed vs. inhibitor concentration [I] for determination of Ki by the Dixon method (Dixon, M. (1953) Biochemical Journal 55: 170-171) using where intercept [I]=−Ki was determined at multiple substrate concentrations.

The nature of data set [3]: Hepatic intrinsic clearance in liver microsomes. The following applies: human, pH 7.4, human liver microsomes. Format: in vitro ADME. The method, then: To 500 μl of 200 mM Na^+K^+phosphate buffer (pH 7.4), 100 μl of 1 mM EDTA solution was added followed by 100 μl of 2 mg protein/ml human liver microsomes. A 10 μl aliquot of test compound (20 mM stock in 50% acetonitrile) was diluted further with 40 μl of H2O (total assay volume […]. Assay mixture is incubated for 5 minutes at 37° C. The assay was initiated by addition of 250 μl of 4 mM NADPH solution. Incubation was continued at 37° C. Separate reaction mixtures were prepared for 0, 5, 10, 20, and 30 min durations. Individual reactions were halted by addition of 150 μl of 100% acetonitrile. Internal standard (10 μl of 100 ng/ml diazepam solution) was added. Concentration of the test compound in each separate reaction was measured using LC/MS/MS and a standard curve for the test compound according to standard procedures.
The hepatic intrinsic clearance in liver microsome was determined by the following procedure described by Davies and Morris (Davies, B. and Morris, T. (19930) Physiological parameters in laboratory animals and humans. Pharm Res. 10:1093-1095) detailing the relationship of in vitro clearance to physiological parameters in animals and human subjects.
The amount of compound remaining at each time point was expressed relative to the amount present in the initial (0 min) incubation. The relationship of relative amount vs. time was used to determine the half life of the compound in the microsome assay. The concentration independent rate constant, k1, was determined from rectangular hyperbolic fit:
where T is time (in minutes), from the relationship of relative amount vs. time. Alternatively, k1 was determined from a transform of the equation, where
Conversion to in vivo clearance was obtained from the relation (Davies and Morris, 1993):
where v=velocity of metabolism, [S] is the concentration of the compound, and volumes are expressed in mL.
For orientation: Liver microsomes are a subcellular fraction often used to study metabolism.

[4] abbreviates: in vitro clearance, read-out: HLM CL.

Chain of memapsin 2 (Homo sapiens, UniProt P56817) (P56817 46-501): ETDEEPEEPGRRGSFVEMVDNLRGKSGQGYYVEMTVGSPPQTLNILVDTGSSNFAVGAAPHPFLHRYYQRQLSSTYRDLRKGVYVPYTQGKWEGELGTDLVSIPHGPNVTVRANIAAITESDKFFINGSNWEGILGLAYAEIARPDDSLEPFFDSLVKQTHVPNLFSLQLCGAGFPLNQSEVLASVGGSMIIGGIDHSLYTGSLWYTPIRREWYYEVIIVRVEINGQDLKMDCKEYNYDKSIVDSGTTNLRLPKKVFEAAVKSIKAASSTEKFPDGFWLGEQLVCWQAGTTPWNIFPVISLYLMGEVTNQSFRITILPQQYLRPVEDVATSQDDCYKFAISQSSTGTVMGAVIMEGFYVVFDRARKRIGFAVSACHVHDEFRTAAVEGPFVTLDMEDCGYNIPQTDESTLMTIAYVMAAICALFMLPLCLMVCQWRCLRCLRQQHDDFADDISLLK
T2 sequence (P08684 whole entry): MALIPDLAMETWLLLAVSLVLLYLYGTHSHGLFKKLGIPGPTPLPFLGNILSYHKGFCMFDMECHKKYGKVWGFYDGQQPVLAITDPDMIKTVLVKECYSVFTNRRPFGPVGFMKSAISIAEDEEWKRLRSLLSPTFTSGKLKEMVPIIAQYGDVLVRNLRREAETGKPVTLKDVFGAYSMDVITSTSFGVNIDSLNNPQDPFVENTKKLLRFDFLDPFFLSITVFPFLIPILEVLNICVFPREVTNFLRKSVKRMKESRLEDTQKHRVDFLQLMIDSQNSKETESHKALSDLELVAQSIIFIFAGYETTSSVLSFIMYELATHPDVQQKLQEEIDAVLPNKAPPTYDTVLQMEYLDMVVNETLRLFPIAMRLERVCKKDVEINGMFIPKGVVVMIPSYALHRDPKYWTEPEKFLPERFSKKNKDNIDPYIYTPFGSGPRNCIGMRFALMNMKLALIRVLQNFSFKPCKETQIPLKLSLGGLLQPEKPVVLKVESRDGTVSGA
T1 sequence (G3IAK4 22-501): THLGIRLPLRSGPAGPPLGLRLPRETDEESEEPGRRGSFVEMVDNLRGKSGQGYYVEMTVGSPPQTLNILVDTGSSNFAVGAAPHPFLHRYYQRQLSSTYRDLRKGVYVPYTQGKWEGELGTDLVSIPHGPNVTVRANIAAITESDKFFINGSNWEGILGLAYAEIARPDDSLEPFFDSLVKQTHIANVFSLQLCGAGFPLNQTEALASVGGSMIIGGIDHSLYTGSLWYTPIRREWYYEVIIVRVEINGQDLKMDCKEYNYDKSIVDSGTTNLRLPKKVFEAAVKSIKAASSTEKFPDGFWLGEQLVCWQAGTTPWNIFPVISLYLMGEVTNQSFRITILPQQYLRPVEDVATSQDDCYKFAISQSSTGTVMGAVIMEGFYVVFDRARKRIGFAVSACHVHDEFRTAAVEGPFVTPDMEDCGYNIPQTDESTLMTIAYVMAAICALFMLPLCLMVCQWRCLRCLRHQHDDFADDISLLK

Consider `Cc1coc([C@H]2CCCN2C(=O)c2cc(CF)cc(C(=O)N[C@@H](Cc3ccccc3)[C@H](O)CNCc3cccc(C(C)(C)C)c3)c2)n1` [2-7, N-((2S,3R)-4-(3-tert-butylbenzylamino)-3-hydroxy-1-phenylbutan-2-yl)-3-(fluoromethyl)-5-((R)-2-(4-methyloxazol-2-yl)pyrrolidine-1-carbonyl)benzamide, reference compound], for which the Ki is less than 250 nM on memapsin 2 [1] and 1000 to 5000 nM at CYP3A4 (read-out: CYP 3A4Ki). On memapsin 2 [2], the IC50 was less than 500 nM. The CLint scaled at 200 μM in data set [3] (setting [4]) was greater than 700 mL/min/kg.
The corresponding values for `Cc1csc([C@H]2CCCN2C(=O)c2cc(F)cc(C(=O)N[C@@H](Cc3ccccc3)[C@H](O)[C@H]3CCCN3)c2)n1` [1-32, 3-fluoro-N-((1R,2S)-1-hydroxy-3-phenyl-1-((R)-pyrrolidin-2-yl)propan-2-yl)-5-((R)-2-(4-methylthiazol-2-yl)pyrrolidine-1-carbonyl)benzamide] are less than 250 nM, 5000 to 10000 nM, greater than 1000 nM and less than 400 mL/min/kg.
The corresponding values for `Cc1csc([C@H]2CCCN2C(=O)c2cc(C(=O)N[C@@H](Cc3ccccc3)[C@H](O)[C@H]3CCCN3)cc(-n3cccc3)c2)n1` [1-16, N-((1R,2S)-1-hydroxy-3-phenyl-1-((R)-pyrrolidin-2-yl)propan-2-yl)-3-((R)-2-(4-methylthiazol-2-yl)pyrrolidine-1-carbonyl)-5-(1H-pyrrol-1-yl)benzamide] are less than 250 nM, 1000 to 5000 nM, 500 to 1000 nM and less than 400 mL/min/kg.
The corresponding values for `Cc1csc([C@H]2CCCN2C(=O)c2cccc(C(=O)N[C@@H](Cc3ccccc3)[C@H](O)[C@H]3CCCN3)c2)n1` [1-40, N-((1R,2S)-1-hydroxy-3-phenyl-1-((R)-pyrrolidin-2-yl)propan-2-yl)-3-((R)-2-(4-methylthiazol-2-yl)pyrrolidine-1-carbonyl)benzamide] are less than 250 nM, 5000 to 10000 nM, 500 to 1000 nM and less than 400 mL/min/kg.
For `Cc1cc(C(=O)N[C@@H](Cc2ccccc2)[C@H](O)CNCc2cncc(C(C)(C)C)c2)cc(C(=O)N2CCC[C@@H]2c2nc(C)co2)c1` [2-3, N-((2S,3R)-4-((5-tert-butylpyridin-3-yl)methylamino)-3-hydroxy-1-phenylbutan-2-yl)-3-methyl-5-((R)-2-(4-methyloxazol-2-yl)pyrrolidine-1-carbonyl)benzamide, reference compound], the Ki on memapsin 2 [1] is less than 250 nM; at CYP3A4, 717 nM; on CYP3A4 (read-out: CYP 3A4Ki) it was less than 1000 nM. In addition, at memapsin 2 [2], the IC50 is less than 500 nM. The results for the CLint scaled at 200 μM in data set [3] (setting [4]) and in data set [3] (read-out: hepatic intrinsic clearance in liver microsomes (HLMCL)) were greater than 700 mL/min/kg and greater than 1000 mL/min/kg, respectively.
For `CCn1cc(CNC[C@@H](O)[C@H](Cc2ccccc2)NC(=O)c2cc(C)cc(C(=O)N3CCC[C@@H]3c3nc(C)co3)c2)cn1` [2-5, N-((2S,3R)-4-((1-ethyl-1H-pyrazol-4-yl)methylamino)-3-hydroxy-1-phenylbutan-2-yl)-3-methyl-5-((R)-2-(4-methyloxazol-2-yl)pyrrolidine-1-carbonyl)benzamide, reference compound], the Ki was less than 250 nM at memapsin 2 [1] and 1000 to 5000 nM at CYP3A4 (read-out: CYP 3A4Ki). Further, the IC50 on memapsin 2 [2] was less than 500 nM. Besides, the CLint scaled at 200 μM in data set [3] (setting [4]) is greater than 700 mL/min/kg.
The matching figures for `Cc1cc(C(=O)N[C@@H](Cc2ccccc2)[C@H](O)[C@H]2CCCN2)cc(C(=O)N2CCC[C@@H]2c2nc(C)co2)c1` [1-8, N-((1R,2S)-1-hydroxy-3-phenyl-1-((R)-pyrrolidin-2-yl)propan-2-yl)-3-methyl-5-((R)-2-(4-methyloxazol-2-yl)pyrrolidine-1-carbonyl)benzamide]: 250 to 750 nM, greater than 10000 nM, greater than 1000 nM and less than 400 mL/min/kg.
`Cc1csc([C@H]2CCCN2C(=O)c2cc(C(=O)N[C@@H](Cc3ccccc3)[C@H](O)CNCc3cncc(C(C)C)c3)cc(-c3ccco3)c2)n1` [2-2, 3-(furan-2-yl)-N-((2S,3R)-3-hydroxy-4-((5-isopropylpyridin-3-yl)methylamino)-1-phenylbutan-2-yl)-5-((R)-2-(4-methylthiazol-2-yl)pyrrolidine-1-carbonyl)benzamide, reference compound]: the Ki on memapsin 2 [1] is less than 250 nM; on CYP3A4 (read-out: CYP 3A4Ki) it was less than 1000 nM. Further, the IC50 on memapsin 2 [2] was less than 500 nM. The CLint scaled at 200 μM in data set [3] (setting [4]) was greater than 700 mL/min/kg.
The matching figures for `Cc1csc(CN(C)C(=O)c2cc(C(=O)N[C@@H](Cc3ccccc3)[C@H](O)[C@H]3CCCN3)cc(-c3ncco3)c2)n1` [1-15, N1-((1R,2S)-1-hydroxy-3-phenyl-1-((R)-pyrrolidin-2-yl)propan-2-yl)-N3-methyl-N3-((4-methylthiazol-2-yl)methyl)-5-(oxazol-2-yl)isophthalamide]: less than 250 nM, 5000 to 10000 nM, less than 500 nM and less than 400 mL/min/kg.
With `Cc1csc([C@H]2CCCN2C(=O)c2cc(C(=O)N[C@@H](Cc3ccccc3)[C@H](O)[C@H]3CCCN3)cc(C(F)F)c2)n1` [1-14, 3-(difluoromethyl)-N-((1R,2S)-1-hydroxy-3-phenyl-1-((R)-pyrrolidin-2-yl)propan-2-yl)-5-((R)-2-(4-methylthiazol-2-yl)pyrrolidine-1-carbonyl)benzamide], the Ki at memapsin 2 [1] is less than 250 nM; at CYP3A4 (read-out: CYP 3A4Ki), 1000 to 5000 nM. On memapsin 2 [2], the IC50 is less than 500 nM. Further, in data set [3] (setting [4]), the CLint scaled at 200 μM was less than 400 mL/min/kg.
Consider `Cc1csc(CN(C)C(=O)c2cccc(C(=O)N[C@@H](Cc3ccccc3)[C@H](O)[C@H]3C[C@@H](OCc4ccccc4)CN3)c2)n1` [1-9, N1-((1R,2S)-1-((2R,4R)-4-(benzyloxy)pyrrolidin-2-yl)-1-hydroxy-3-phenylpropan-2-yl)-N3-methyl-N3-((4-methylthiazol-2-yl)methyl)isophthalamide], for which the Ki on memapsin 2 [1] was less than 250 nM; on CYP3A4 (read-out: CYP 3A4Ki), 1000 to 5000 nM. The IC50 on memapsin 2 [2] is less than 500 nM. Also, the CLint scaled at 200 μM in data set [3] (setting [4]) was less than 400 mL/min/kg.
